The source of these data is patent US7112676B2, “Pyrimido compounds having antiproliferative activity” (Hoffmann-La Roche Inc., priority 2002, dated 2006).

For one series, the target named is EGFR (Homo sapiens, UniProt P00533). Description: EGFR kinase HTRF assay. In kind it is biochemical. Particulars: 0.5 μM ATP, read-out: IC50 (μM) - Enzyme Inhibition Assays EGFR. Here is the method: (§1) To determine inhibition of KDR, FGFR, EGFR, and PDGFR activity, kinase assays were conducted using an HTRF (Homogeneous Time Resolved Fluorescence) assay. This assay is described in A. J. Kolb et. al., Drug Discovery Today, 1998, 3(7), p 333.
(§2) Kinase activity assays were performed in 96-well polypropylene plates (Falcon) with a total volume of 90 μL in each well. Each well contained 1 μM KDR substrate (Biotin-EEEEYFELVAKKKK), 1 nM activated KDR, and a test compound with one of 8 assay concentrations ranging from 100 μM to […] (1:5 serial dilution). The kinase activity assay was done in the presence of 100 mM HEPES, pH 7.4, 1 mM DTT, 0.1 mM Na2VO4, 25 mM MgCl2, 50 mM NaCl (from KDR stock solution), 1% DMSO (from compound), 0.3 mM ATP (at Km concentration) and 0.02% BSA. The reaction was incubated at 37° C. for 30 minutes. To stop the KDR reaction, 72 μL of reaction mixture was transferred into a STOP plate containing 18 μL of revelation buffer (20 mM EDTA, 50 mM HEPES, pH 7.4, 0.02% BSA, 10 nM Eu-labelled anti-pY antibody (final conc. 2 nM), and 100 nM streptavidin (final conc. 20 nM)). After mixing, 35 μL of solution was transferred into duplicate wells of a 384-well black plate (Costar), and read at 615/665 nm on a Wallac Victor 5 reader.
The EGFR kinase activity assay was performed with 1 μM substrate (Biotin-EEEEYFELV), 1.5 nM EGFR, test compounds, 100 mM HEPES, pH 7.4, 1 mM DTT, 5 mM MgCl2, 2 mM MnCl2, 1% DMSO, 0.5 μM ATP (Km for EGFR), 0.1 mM Na2VO4, and 0.02% BSA. The rest of the assay was performed in the same manner as the KDR assay.
(§3) Compound IC50 values were determined from duplicate sets of data, and calculated by using Excel and fitting data to equation Y=[(a−b)/{1+(X/c)^d]+b, where a and b are enzyme activity in the presence of no test inhibitor compound and an infinite amount of inhibitor test compound, respectively, c is the IC50 and d is the hill constant of the compound response. The IC50 value is the concentration of test compound that reduces by 50% the enzyme activity under the test conditions described.
Background: Time-resolved FRET reads energy transfer from a long-lived donor to a nearby acceptor.

A further series deals with PDGFR. Description: PDGFR kinase HTRF assay. Particulars: 2.3 μM ATP, read-out: IC50 (μM) - Enzyme Inhibition Assays PDGFR. In kind it is biochemical. Here is the method:
as §1, §2
The PDGFR kinase activity assay was performed with 1 μM substrate (Biotin-EEEEYFELV), 1.0 nM PDGFR, test compounds, 100 mM HEPES, pH 7.4, 1 mM DTT, 5 mM MgCl2, 2 mM MnCl2, 1% DMSO, 2.3 μM ATP (Km for PDGFR), 0.1 mM Na2VO4, and 0.02% BSA. The rest of the assay was performed in the same manner as the KDR assay.
as §3

A further series concerns the target T1, KDR (Homo sapiens, UniProt P35968).
T1 construct: EEE-tag
Nature of the series: KDR kinase HTRF assay. The format is biochemical. Particulars: 0.3 mM ATP, read-out: IC50 (μM) - Enzyme Inhibition Assays KDR. How it is done: as §1
Prior to kinase reaction, recombinant EEE-tagged KDR was activated in the presence of activation buffer (50 mM HEPES, pH 7.4, 1 mM DTT, 10% glycerol, 150 mM NaCl, 0.1 mM EDTA, 26 mM MgCl2, and 4 mM ATP). The enzyme was incubated at 4° C. for 1 hour.
as §2, §3

The next series addresses T2, FGFR.
T2 construct: fused on or other part: GST tag
Description: FGFR kinase HTRF assay. The following applies: 10 μM ATP, read-out: IC50 (μM) - Enzyme Inhibition Assays FGFR. In kind it is biochemical. How it is done: as §1, §2
FGFR, EGFR, and PDGFR activity assays were carried out as described above for the KDR activity assay with the following differences. GST-tagged FGFR enzyme was activated at room temperature for 1 hour in the following activation buffer: 100 mM HEPES, pH 7.4, 50 mM NaCl, 20 mM MgCl2, and 4 mM ATP. The kinase activity assay was performed with 1 μM substrate (Biotin-EEEEYFELV), 1.5 nM activated FGFR, and test compound in the presence of 100 mM HEPES, 1 mM DTT, 0.4 mM MgCl2, 0.4 mM MnCl2, 50 mM NaCl, 1% DMSO, 10 μM ATP (Km=8.5 μM for FGFR), 0.1 mM Na2VO4, and 0.02% BSA, in a total volume of 90 μL. The rest of the assay was performed in the same manner as KDR assay.
as §3

The test system of the next series is FGF-stimulated HUVEC. Description: FGF-stimulated HUVEC proliferation assay (BrdU). In kind it is cell-based. The following applies: Homo sapiens, FGF 5 ng per mL, BrdU labeling, 24 hour exposure, read-out: IC50 (μM) of VEGF and FGF-Stimulated HUVEC Proliferation Assays HUVEC/bFGFR. Here is the method:
(§4) The antiproliferative activity of test compounds of this invention in cell-based assays was evaluated by BrdU assay using the BrdU kit (Roche Biochemicals 1-647-229). Human umbilical vein endothelial cells (HUVEC, Clonetics CC-2519) were cultured in EGM-2 (Clonetics CC-3162) medium and seeded at 10000 cells per well in a volume of 200 μL of EGM-2 (Clonetics CC-3162) media in a 96-well flat bottom plates (Costar 3595) overnight. After 24 hours of growth at 37° C. with 5% CO2, the incubation media was removed slowly by aspiration and the content of each well was washed with 300 μL pre-warmed EBM-2 (Clonetics CC-3156) containing 50 μg per mL of gentamycin and 50 ng per mL of amphotercin-B (Clonetics CC-4083). Subsequently, the remaining media was again aspirated and replaced with 160 μL per well of serum starvation media (EBM-2 supplemented with 1% heat inactivated FBS (Clonetics CC-4102), 50 μg per mL gentamycin and 50 ng per mL of amphotercin-B (Clonetics CC-4083), 10 units per mL of Wyeth-Ayerst heparin (NDC0641-0391-25), and 2 mM L-glutamine (GIBCO 25030-081). After serum starving the cells for 24 hours, 20 μL of test compound at 10× test concentration in serum starvation medium with 2.5% DMSO was added to the appropriate wells. The control wells contained 20 μL of serum starvation medium with 2.5% DMSO. Plates were returned to the incubator for 2 hours. After pre-incubating the cells with the test compounds for 2 hours, 20 μL of growth factors at 10× assay concentration diluted in serum starvation media, FGF at 50 ng per mL, or VEGF (R&D systems 293-VE) at 200 ng per mL were added. The final concentration of FGF in the assay was 5 ng per mL and the final concentration of VEGF in the assays was 20 ng per mL. The growth factor free control wells had 20 μL per well of serum starvation media with the same amount of BSA as the wells with growth factors. The plates were returned to the incubator for an additional 22 hours.
(§5) After 24 hour exposure to the test compounds, the cells were labeled with BrdU (Roche Biochemicals 1-647-229), by adding 20 μL per well of BrdU labeling reagent that has been diluted (1:100) in serum starvation medium. The plates were then returned to the incubator for 4 hours. The labeling medium was removed by draining the medium onto paper towels. The cells were fixed and DNA denatured by adding 200 μL of fixation/denaturation solution to each well and incubating at room temperature for 45 minutes. The fixation/denaturation solution was drained onto paper towels and to each well was added 100 μL of anti-BrdU-POD and the wells were incubated for 2 hours at room temperature. The antibody solution was removed and the wells were each washed 3–4 times with 300 μl PBS. 100 μL of the TMB substrate solution was added to each well and the wells were incubated at room temperature for 5–8 minutes. The reaction was then stopped by adding 100 μL per well of 1 M phosphoric acid. The plates were read at 450 nm with reference wavelength of 650 nm. The percent inhibition for each test compound was calculated by subtracting the absorbency of the blank (no cells) wells from all wells, then subtracting the division of the average absorbency of each test duplicate by the average of the controls from 1. The final product was then multiplied by 100 (% of inhibition=(1−average absorbency of test duplicate/average of control)100). The IC50 value is the concentration of test compound that inhibits by 50% BrdU labeling, and is a measure of inhibition of cell proliferation. The IC50 is determined from the linear regression of a plot of the logarithm of the concentration versus percent inhibition.

A further series has as its system VEGF-stimulated HUVEC. Nature of the series: VEGF-stimulated HUVEC proliferation assay (BrdU). The format is cell-based. Particulars: Homo sapiens, VEGF 20 ng per mL, BrdU labeling, 24 hour exposure, read-out: IC50 (μM) of VEGF and FGF-Stimulated HUVEC Proliferation Assays HUVEC/VEFG. Here is the method: as §4, §5
A general note: Dividing cells build labelled thymidine or BrdU into new DNA.

T1 sequence (P35968 20-1356, species assumed): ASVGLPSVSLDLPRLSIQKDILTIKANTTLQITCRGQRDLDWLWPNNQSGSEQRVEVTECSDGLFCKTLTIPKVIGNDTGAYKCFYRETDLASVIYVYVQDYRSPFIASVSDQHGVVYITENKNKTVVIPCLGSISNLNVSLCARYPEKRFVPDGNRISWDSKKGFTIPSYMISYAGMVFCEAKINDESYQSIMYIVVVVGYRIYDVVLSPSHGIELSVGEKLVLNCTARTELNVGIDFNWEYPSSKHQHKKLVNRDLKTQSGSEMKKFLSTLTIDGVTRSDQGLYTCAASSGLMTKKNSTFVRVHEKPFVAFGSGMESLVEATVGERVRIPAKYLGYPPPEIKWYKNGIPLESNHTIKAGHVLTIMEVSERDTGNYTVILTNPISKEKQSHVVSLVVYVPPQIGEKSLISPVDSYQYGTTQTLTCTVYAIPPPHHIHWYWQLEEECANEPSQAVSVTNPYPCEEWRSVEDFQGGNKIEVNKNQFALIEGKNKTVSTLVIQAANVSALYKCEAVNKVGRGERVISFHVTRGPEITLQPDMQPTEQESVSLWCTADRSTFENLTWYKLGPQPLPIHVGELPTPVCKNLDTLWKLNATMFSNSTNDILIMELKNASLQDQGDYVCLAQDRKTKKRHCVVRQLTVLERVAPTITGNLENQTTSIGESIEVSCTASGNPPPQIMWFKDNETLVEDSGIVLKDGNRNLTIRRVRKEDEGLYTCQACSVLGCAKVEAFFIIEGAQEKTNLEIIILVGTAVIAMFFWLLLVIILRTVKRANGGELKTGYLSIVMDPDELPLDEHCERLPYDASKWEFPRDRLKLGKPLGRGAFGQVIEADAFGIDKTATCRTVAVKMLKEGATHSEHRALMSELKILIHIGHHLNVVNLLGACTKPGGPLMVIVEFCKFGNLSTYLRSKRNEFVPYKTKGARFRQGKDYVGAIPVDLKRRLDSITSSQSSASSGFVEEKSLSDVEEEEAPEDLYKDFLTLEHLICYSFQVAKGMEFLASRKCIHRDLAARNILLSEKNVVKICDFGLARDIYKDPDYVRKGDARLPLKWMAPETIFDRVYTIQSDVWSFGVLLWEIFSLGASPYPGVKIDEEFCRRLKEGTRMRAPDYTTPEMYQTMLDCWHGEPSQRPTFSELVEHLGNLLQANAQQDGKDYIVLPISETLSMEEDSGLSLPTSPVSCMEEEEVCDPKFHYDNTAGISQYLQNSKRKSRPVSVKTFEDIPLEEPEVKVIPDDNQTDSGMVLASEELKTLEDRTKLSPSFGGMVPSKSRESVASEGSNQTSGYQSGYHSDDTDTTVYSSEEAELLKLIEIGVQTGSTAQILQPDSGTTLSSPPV
Sequence of EGFR (P00533 25-1210, species assumed): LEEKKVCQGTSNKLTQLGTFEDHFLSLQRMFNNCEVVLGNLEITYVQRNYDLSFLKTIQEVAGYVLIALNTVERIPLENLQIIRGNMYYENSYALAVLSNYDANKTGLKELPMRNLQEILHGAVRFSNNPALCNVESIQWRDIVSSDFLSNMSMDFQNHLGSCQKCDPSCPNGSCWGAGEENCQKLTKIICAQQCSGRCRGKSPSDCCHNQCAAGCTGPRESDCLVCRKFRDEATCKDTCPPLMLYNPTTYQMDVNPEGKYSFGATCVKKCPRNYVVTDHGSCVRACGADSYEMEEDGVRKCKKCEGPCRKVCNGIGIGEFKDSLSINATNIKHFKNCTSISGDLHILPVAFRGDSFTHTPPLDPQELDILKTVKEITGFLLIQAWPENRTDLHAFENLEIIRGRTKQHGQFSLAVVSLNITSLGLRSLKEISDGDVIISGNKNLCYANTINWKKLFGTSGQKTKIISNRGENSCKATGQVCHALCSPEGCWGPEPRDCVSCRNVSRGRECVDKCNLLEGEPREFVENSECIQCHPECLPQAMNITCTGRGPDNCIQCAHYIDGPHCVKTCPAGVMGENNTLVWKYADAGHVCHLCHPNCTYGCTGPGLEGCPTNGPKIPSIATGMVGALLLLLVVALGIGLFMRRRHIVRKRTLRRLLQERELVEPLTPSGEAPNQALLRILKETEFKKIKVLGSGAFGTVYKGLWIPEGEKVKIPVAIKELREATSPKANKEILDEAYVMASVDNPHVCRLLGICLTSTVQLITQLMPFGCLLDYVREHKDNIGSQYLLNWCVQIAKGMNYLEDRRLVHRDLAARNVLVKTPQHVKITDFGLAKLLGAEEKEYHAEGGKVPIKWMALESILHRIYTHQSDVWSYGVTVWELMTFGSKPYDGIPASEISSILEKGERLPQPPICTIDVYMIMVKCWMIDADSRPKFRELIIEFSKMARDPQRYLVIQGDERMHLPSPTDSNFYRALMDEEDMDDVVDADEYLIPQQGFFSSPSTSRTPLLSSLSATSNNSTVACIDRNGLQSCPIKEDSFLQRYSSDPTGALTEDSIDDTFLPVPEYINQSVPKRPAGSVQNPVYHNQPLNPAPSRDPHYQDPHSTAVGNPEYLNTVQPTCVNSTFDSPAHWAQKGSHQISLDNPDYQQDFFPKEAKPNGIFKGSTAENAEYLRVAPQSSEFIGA

In the case of `CCC1c2cnc(Nc3ccccc3)nc2N(c2ccccc2)C(=O)N1c1ccc(OC)cc1` (racemic) [Example 7e, (±)-4-Ethyl-3-(4-methoxy-phenyl)-1-phenyl-7-phenylamino-3,4-dihydro-1H-pyrimido[4,5d]pyrimidin-2-one], the melting point (in general, the temperature of the solid-liquid transition) fell in the range of 172 to 176 °C. Moreover, the IC50 at EGFR was under 10 µM. At PDGFR, the IC50 is under 10 µM. Further, the IC50 at KDR is under 10 µM. The IC50 at FGFR is under 10 µM.
As for `COc1ccc(N2C(=O)N(c3ccccc3)c3nc(Nc4ccccc4)ncc3C2C(C)C)cc1` (racemic) [Example 11e, (±)-4-Isopropyl-3-(4-methoxy-phenyl)-1-phenyl-7-phenylamino-3,4-dihydro-1H-pyrimido[4,5-d]pyrimidin-2-one], the melting point lay in the range of 229 to 235 °C. Further, the IC50 on EGFR was under 10 µM. On PDGFR, the IC50 was over 10 µM. Also, the IC50 at KDR is over 10 µM. In addition, the IC50 at FGFR was over 10 µM.
Regarding `COc1ccc(Cl)c(N2C(=O)N(c3ccccc3)c3nc(Nc4ccccc4)ncc3C2C)c1` (racemic) [Example 12c, (±)-3-(2-Chloro-5-methoxy-phenyl)-4-methyl-1-phenyl-7-phenylamino-3,4-dihydro-1H-pyrimido[4,5-d]pyrimidin-2-one], the IC50 at EGFR, at PDGFR, on KDR and on FGFR was under 10 µM each time.
Regarding `COc1ccc(N2C(=O)N(c3ccccc3)c3nc(N(C(C)=O)c4ccccc4)ncc3C2C)cc1` (racemic) [Example 19, (±)-N-[6-(4-Methoxy-phenyl)-5-methyl-7-oxo-8-phenyl-5,6,7,8-tetrahydro-pyrimido[4,5-d]pyrimidin-2-yl]-N-phenyl-acetamide], the IC50 in the series with FGF-stimulated HUVEC, at EGFR, on PDGFR, on KDR, in the series on VEGF-stimulated HUVEC and at FGFR was under 10 µM each time.
`COc1ccc(N2C(=O)N([C@H]3CC[C@H](O)CC3)c3nc(Nc4ccccc4)ncc3C2C)cc1` (mixture of isomers) [Example 20b, (±)-1-(trans-4-Hydroxy-cyclohexyl)-3-(4-methoxy-phenyl)-4-methyl-7-phenylamino-3,4-dihydro-1H-pyrimido[4,5-d]pyrimidin-2-one]: the IC50 in the series with FGF-stimulated HUVEC, on EGFR, on PDGFR, at KDR, in the series on VEGF-stimulated HUVEC and on FGFR was under 10 µM in each case.
`COc1ccc(N2C(=O)N(c3ccccc3)c3nc(Nc4ccccc4)ncc3[C@H]2C)cc1` (single isomer, unassigned) [Example 2]: the melting point fell in the range of 218 to 233 °C. Further, the IC50 at EGFR is under 10 µM. Also, the IC50 at PDGFR is under 10 µM. Further, on KDR, the IC50 was under 10 µM. Further, at FGFR, the IC50 was under 10 µM.
Turning to `COc1ccc(N2C(=O)N([C@@H](C)CO)c3nc(Nc4ccccc4)ncc3C2C)cc1` (stereo partly drawn) [Example 13d, 1-(2-Hydroxy-1-(S)-methyl-ethyl)-3-(4-methoxy-phenyl)-4-methyl-7-phenylamino-3,4-dihydro-1H-pyrimido[4,5-d]pyrimidin-2-one], the melting point was 165 to 180 °C.
For the compound `COc1ccc(N2C(=O)N([C@H](C)CO)c3nc(Nc4ccccc4)ncc3[C@H]2C)cc1` [Example 14f, 1-(2-Hydroxy-1-(R)-methyl-ethyl)-3-(4-methoxy-phenyl)-4-(R)-methyl-7-phenylamino-3,4-dihydro-1H-pyrimido[4,5-d]pyrimidin-2-one], the melting point is 158 to 162 °C. For the same compound, the IC50 at EGFR is under 10 µM. The IC50 on PDGFR is under 10 µM. The IC50 on KDR was under 10 µM. In addition, the IC50 at FGFR is under 10 µM.
